Calls of active or inactive are those of the source. How the calls were made is not given here.
Each compound was assayed against Induced myeloid leukemia cell differentiation protein Mcl-1 (Homo sapiens) (UniProt Q07820) (assay: Mcl-1/Bim interaction regulators – biochemical, bead-based flow cytometry, multiplexed, human, dose response (AID 1329)). Settings: Bim peptide-Mcl-1 binding, MCF.
Sequence of Induced myeloid leukemia cell differentiation protein Mcl-1 (Homo sapiens) (Q07820 whole entry, looked up): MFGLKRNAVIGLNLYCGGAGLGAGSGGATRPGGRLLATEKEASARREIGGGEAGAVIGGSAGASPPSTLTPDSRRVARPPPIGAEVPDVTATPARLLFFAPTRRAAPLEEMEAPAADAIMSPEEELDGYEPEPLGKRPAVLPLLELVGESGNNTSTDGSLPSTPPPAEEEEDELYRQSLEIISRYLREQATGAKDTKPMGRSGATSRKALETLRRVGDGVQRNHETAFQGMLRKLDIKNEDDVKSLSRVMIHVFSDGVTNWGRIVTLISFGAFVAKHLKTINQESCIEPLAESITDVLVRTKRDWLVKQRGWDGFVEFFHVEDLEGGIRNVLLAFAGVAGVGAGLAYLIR
For `CN(CCc1ccccn1)C(=O)CCC1CCCN(C(=O)NC2CCCCC2)C1` (centres undefined), the percent span was “inactive”.
In the case of `O=C1c2ccccc2C(=O)c2cc(S(=O)(=O)Nc3ccccc3)ccc21`, the percent span is reported as “inactive”.
With `CSc1nnc2ccc(-c3cccs3)nn12` the percent span was “inactive”.
With `Cc1ccc(-c2cc(-c3ccc(Cl)cc3)c(C#N)c(N)n2)o1` the percent span was “inactive”.
With `Cc1ccc(NS(=O)(=O)c2cc(NC(=O)c3ccc4c(c3)NC(=O)CS4)ccc2C)c(C)c1` the percent span was “inactive”.
For `COc1ccc(S(=O)(=O)NCCSc2ccccc2)cc1OC`, the percent span was “inactive”.
In the case of `Cc1ccc(/C=C/C(=O)c2ccccc(=O)c2O)c(C)c1`, the percent span is reported as “inactive”.
`O=C(CCl)Nc1cccc2ncccc12` was tested, and the percent span was “inactive”.
`Cc1cc(Cl)ccc1N=c1ssnc1Cl` was tested, and the percent span was “inactive”.
For `O=C(c1cnccn1)N1CCN(c2ccccc2F)CC1`, the percent span was “inactive”.
In the case of `CCN(CC)C(=O)COC(=O)c1cc(-c2ccco2)nc2ccccc12`, the percent span is reported as “inactive”.
In the case of `COc1ccccc1C1=Nc2cccc3cccc(c23)N1`, the percent span is reported as “inactive”.
For `O=C(Nc1n[nH]c(C(F)(F)F)n1)C1CC1`, the percent span was “inactive”.
In the case of `O=C1/C(=C\c2ccco2)NC(=S)N1c1ccccc1`, the percent span is reported as “inactive”.
`COc1ccc(N2CCN(CCCNC(=O)CCCn3c(=O)[nH]c4ccsc4c3=O)CC2)cc1` was tested, and the percent span was “inactive”.
For `COc1ccccc1NC(=O)CSc1ncn(-c2ccccc2)n1`, the percent span was “inactive”.
In the case of `O=C1c2ccccc2C(=O)N1CN(C(=O)COc1ccc(Cl)cc1Cl)c1cccc(F)c1`, the percent span is reported as “inactive”.
In the case of `CCc1nnc(NC(=O)CSc2nnc(COc3ccc(C)cc3)n2-c2ccccc2)s1`, the percent span is reported as “inactive”.
With `CC1=C2C(CCS2(=O)=O)CC2(C1)C(=O)OC(C)(C)OC2=O` (centres undefined) the percent span was “inactive”.
`COc1ccc(NC(=O)c2ccc(CN3CCN(c4ccccc4)CC3)cc2)cc1` was tested, and the percent span was “inactive”.
`O=C(c1cnccn1)N(Cc1cccs1)C1(C(=O)NC2CCCCC2)CCCCC1` was tested, and the percent span was “inactive”.
In the case of `Cc1ccc(CC(=O)OCCNC(=O)c2cccnc2)cc1`, the percent span is reported as “inactive”.
With `Cn1c(CNc2nc(-c3ccccc3)cs2)nnc1SCC(=O)N1CCc2ccccc21` the percent span was “inactive”.
`CC(C)(C)C(=O)NC(NC(=S)Nc1ccc(S(N)(=O)=O)cc1)C(Cl)(Cl)Cl` (centres undefined) was tested, and the percent span was “inactive”.
With `CNc1ccc(Br)cc(C(=O)/C=C/c2cccc(OC)c2OC)c1=O` the percent span was “inactive”.
In the case of `CNCc1ccccc1Sc1cc(O)ccc1O`, the percent span is reported as “inactive”.
For `CC(CCc1ccccc1)NC(=O)C1CCN(S(=O)(=O)N2CCCCC2)CC1` (centres undefined), the percent span was “inactive”.
`O=C(Nc1ccc(Cl)cn1)Nc1ccccc1F` was tested, and the percent span was “inactive”.
For `COC(=O)CSc1nccc(-c2cccs2)n1`, the percent span was “inactive”.
`CCOc1cc(CNc2ccc(N3CCCCC3)cc2)cc(Br)c1OCC(=O)NC(C)(C)C` was tested, and the percent span was “inactive”.
In the case of `N/C(=N\OC(=O)CCC1CCCC1)c1ccncc1`, the percent span is reported as “inactive”.
For `Nc1ccc(N2CCN(CCCCN3C(=O)C4CCCN4C3=O)CC2)cc1` (centres undefined), the percent span was “inactive”.
With `S=c1[nH]cc(-c2ccccc2)n1-c1ccccc1` the percent span was “inactive”.
In the case of `COc1ccc(OC)c(-n2c(-c3ccc(C)cc3)n[nH]c2=S)c1`, the percent span is reported as “inactive”.
With `COc1ccc(C2C(C#N)=C(C)NC3=C2S(=O)(=O)c2ccccc23)cc1` (centres undefined) the percent span was “inactive”.
With `O=C(CSc1ccc(-c2ccccc2)nn1)NCc1ccco1` the percent span was “inactive”.
With `CC(C)(C)OC(=O)N1CCN(C(=O)[C@H](Cc2ccc(O)cc2)n2cc(CCO)nn2)CC1` the percent span was “inactive”.
With `Cc1cc(-c2csc(N)n2)c(C)n1CCC(C)C` the percent span was “inactive”.
`O=S1(=O)N=C(N(CCO)/N=C/c2ccccc2)c2ccccc21` was tested, and the percent span was “inactive”.
In the case of `Cc1ccc2c(c1)C1CN(C)CCC1N2C(=O)Nc1cccc(Cl)c1` (centres undefined), the percent span is reported as “inactive”.
In the case of `CC1=NN(c2ccc(C)cc2)C(=O)/C1=C\c1ccc(Br)s1`, the percent span is reported as “inactive”.
`CCN(CC)c1ccc(NC(=O)c2cccc(C)c2)cc1S(=O)(=O)Nc1ccccc1OC` was tested, and the percent span was “inactive”.
For `CCN1CCN(c2ccc(NC(=O)c3cccc4ncccc34)cc2)CC1`, the percent span was “inactive”.
In the case of `CCN(CC)c1ccc(NC(=O)c2ccc(=O)[nH]c2)cc1S(=O)(=O)Nc1ccccc1OC`, the percent span is reported as “inactive”.
In the case of `COC(=O)CSc1ncnc2c1sc1nc(-c3ccco3)c3c(c12)CC(C)(C)OC3`, the percent span is reported as “inactive”.
`Cc1ccc(NC(=O)CC2S/C(=N/N=C/c3c[nH]c4ccccc34)NC2=O)cc1` (centres undefined) was tested, and the percent span was “inactive”.
`Cc1ccc(-c2cc(C(=O)Nc3cccnc3)c3ccccc3n2)o1` was tested, and the percent span was “inactive”.
`COc1ccc(NC(=O)C2=C(C)NC(=O)NC2c2cccc(OC)c2OC)c(OC)c1` (centres undefined) was tested, and the percent span was “inactive”.
`O=C(COc1ccccc1)Nc1ccc2c(c1)Cc1cc(NC(=O)COc3ccccc3)ccc1-2` was tested, and the percent span was “inactive”.
For `O=C(Nc1nnc(COc2ccc(Cl)cc2)s1)c1ccco1`, the percent span was “inactive”.
For `CCC(CC)C(=O)Nc1cccc(SC)c1`, the percent span was “inactive”.
`Cc1cccc(C(=O)N2CCC(c3nc(-c4ccc(S(=O)(=O)N5CCOCC5)cc4)no3)CC2)c1` was tested, and the percent span was “inactive”.
In the case of `O=C(N/N=C/c1ccc(-c2ccccc2[N+](=O)[O-])o1)c1cncc(Br)c1`, the percent span is reported as “inactive”.
In the case of `CN(C)c1ccc(C(=O)/C=C/c2ccc(Br)cc2)cc1`, the percent span is reported as “inactive”.

Reference: PubChem BioAssay AID1329 (NMMLSC, 2008)
